tested on: HCV; assay: anti-HCV activity assay in cell culture (HCV RNA by one-step quantitative RT-PCR); type: cell-based; settings: Hepatitis C virus, Huh7.5, 96 h, compound at 10 μmol/L; Huh7.5 cells infected with HCV virus particles; cultured 96 hrs; HCV RNA in cells vs virus control group; read-out: percent inhibition (%)
Description: The assay results of anti-HCV activity of the compound synthesized according to the present invention in cell culture are shown in Table 1, wherein the molecular weight is calculated by ChemBioDraw 12.0 software from the molecular structure of each compound.
100 μL Huh7.5 cells were seeded in 96-well cell culture plate to 1×10^5/mL density, cultured in an incubator at 37° C. under the condition of 5% CO2 and saturated humidity for 6 hrs. Huh7.5 cells were then infected by viral solution containing HCV virus particles, and solutions of compound of the present invention at a concentration of 10 μmol/L liquid were added respectively, cultured for further 96 hrs, and then total RNA was extracted from the cells. Amount of HCV RNA in cells was determined by one-step quantitative RT-PCR, and compared to RNA levels of the virus control group to calculate the inhibition rate of compounds on HCV.

| Structure (SMILES) | inhibition at 10 µM [%] |
| --- | --- |
| N#Cc1ccc(N2CCNCC2)cc1CNc1ccccc1 [Compound 7, 4-(piperazin-1-yl)-2-(phenylamino)methylbenzonitrile] | 82 |
| COc1ccc(N(C)Cc2cc(N3CCN(c4ccccc4)CC3)ccc2C#N)cc1 [Compound 20, 4-(4-phenylpiperazin-1-yl)-2-((p-methoxyphenyl)(methyl)amino)methylbenzonitrile] | 70 |
| CN1CCN(c2ccc(C#N)c(CN3CCN(c4ccc(C(C)(C)C)cc4)CC3)c2)CC1 [VI-13, 4-(4-methylpiperazin-1-yl)-2-(4-(4-tert-butylphenyl)piperazin-1-yl)methylbenzonitrile] | 90 |
| Cc1ccc(NCc2nc(N3CCN(C)CC3)ccc2C#N)cc1 [Compound 37, 2-((4-methylphenyl)amino)methyl-6-(4-methylpiperazin-1-yl)-3-cyanopyridine] | 72 |
| COc1ccc(N2CCN(Cc3cc(N4CCN(C)CC4)ccc3C#N)CC2)cc1 [VI-3, 4-((4-methyl)piperazin-1-yl)-2-(4-(4-methoxyphenyl)piperazin-1-yl)methylbenzonitrile] | 91 |
| CCc1ccc(N2CCN(Cc3cc(N4CCN(C)CC4)ccc3C#N)CC2)cc1 [VI-14, 4-(4-methylpiperazin-1-yl)-2-(4-(4-ethylphenyl)piperazin-1-yl)methylbenzonitrile] | 88 |
| CN1CCN(c2ccc(C#N)c(CN3CCN(c4ccc(Br)cc4)CC3)c2)CC1 [VI-34, 2-(4-(4-bromophenyl)piperazin-1-yl)methyl-4-(4-methylpiperazin-1-yl)benzonitrile] | 91 |
| COc1ccc(N(C)Cc2cc(N3CC(C)NC(C)C3)ccc2C#N)cc1 (stereo not shown) [Compound 25, 4-(3,5-dimethylpiperazin-1-yl)-2-((p-methoxyphenyl)(methyl)amino)methylbenzonitrile] | 75 |
| CN1CCN(c2ccc(C#N)c(CN3CCN(c4ccc(C5CCCCC5)cc4)CC3)c2)CC1 [VI-12, 4-(4-methylpiperazin-1-yl)-2-(4-(4-cyclohexylphenyl)piperazin-1-yl)methylbenzonitrile] | 86 |
| Cc1ccc(N2CCN(Cc3cc(N(C)CN4CCCCC4)ccc3C#N)CC2)cc1 [VI-36, 4-((methyl)((piperidin-1-yl)-methyl)amino)-2-(4-p-methylphenylpiperazin-1-yl)methylbenzonitrile] | 91 |
| Cc1ccc(N(C)Cc2cc(N3CCN(C)CC3)ccc2C#N)cc1 [Compound 14, 4-(4-methylpiperazin-1-yl)-2-((p-methylphenyl)(methyl)amino)methylbenzonitrile] | 97 |
| CN1CCN(c2ccc(C#N)c(CNc3ccc(Br)cc3)c2)CC1 [Compound 42, 2-(((4-bromophenyl)amino)methyl)-4-(4-methylpiperazin-1-yl)benzonitrile] | 87 |
| COc1ccc(N(C)Cc2cc(N3CCN(C)CC3)ccc2C#N)cc1 [Compound 16, 4-(4-methylpiperazin-1-yl)-2-((p-methoxyphenyl)(methyl)amino)methylbenzonitrile] | 84 |
| CN1CCN(c2ccc(C#N)c(CNc3ccc(C(C)(C)C)cc3)c2)CC1 [Compound 12, 4-(4-methylpiperazin-1-yl)-2-(p-tert-butylphenylamino)methylbenzonitrile] | 92 |
| Cc1ccc(NCc2cc(N3CCNC(C)C3)ccc2C#N)cc1 (stereo not shown) [Compound 5, 4-(3-methylpiperazin-1-yl)-2-(p-methylphenylamino)methylbenzonitrile] | 88 |
| CN1CCN(c2ccc(C#N)c(CNc3ccc(C4CCCC4)cc3)c2)CC1 [Compound 24, 4-(4-methylpiperazin-1-yl)-2-(p-cyclopentylphenylamino)methylbenzonitrile] | 94 |
| COc1ccc(N2CCN(Cc3cc(N4CCNCC4)ccc3C#N)CC2)cc1 [VI-5, 4-(piperazin-1-yl)-2-(4-(4-methoxyphenyl)piperazin-1-yl)methylbenzonitrile] | 79 |
| CN1CCN(c2ccc(C#N)c(CN3CCC(c4ccc(C(C)(C)C)cc4)CC3)c2)CC1 [VI-38, 4-(4-methylpiperazin-1-yl)-2-(4-(4-tert-butylphenyl)piperidin-1-yl)methylbenzonitrile] | 80 |
| CC(C)c1ccc(NCc2cc(N3CCN(C)CC3)ccc2C#N)cc1 [Compound 21, 4-(4-methylpiperazin-1-yl)-2-(p-isopropylphenylamino)methylbenzonitrile] | 90 |
| COc1ccc(NCc2nc(N(C)CCN(C)C)ccc2C#N)cc1 [Compound 38, 6-((2-(dimethylamino)ethyl)(methyl)amino)-2-((4-methoxyphenyl)amino)methyl-3-cyanopyridine] | 70 |
| CCCN1CCN(c2ccc(C#N)c(CNc3ccc(Sc4ccccc4)cc3)c2)CC1 [Compound 23, 4-(4-propylpiperazin-1-yl)-2-(p-(phenylthio)phenylamino)methylbenzonitrile] | 78 |
| COc1ccc(N2CCN(Cc3cc(NCN4CCCCC4)ccc3C#N)CC2)cc1 [VI-2, 4-(((piperidin-1-yl)methyl)amino)-2-(4-(4-methoxyphenyl)piperazin-1-yl)methylbenzonitrile] | 62 |
| CCCN1CCN(c2ccc(C#N)c(CN(C)c3ccc(Oc4ccccc4)cc3)c2)CC1 [Compound 22, 4-(4-propylpiperazin-1-yl)-2-((p-phenoxyphenyl)(methyl)amino)methylbenzonitrile] | 86 |
| COc1ccc(NCc2cc(N3CCN(C)CC3)ccc2C#N)cc1 [Compound 10, 4-(4-methylpiperazin-1-yl)-2-(p-methoxyphenylamino)methylbenzonitrile] | 90 |

same assay, conditions: compound at 10 μmol/L; Huh7.5 cells infected with HCV virus particles; cultured 96 hrs; HCV RNA in cells vs virus control group

| Structure (SMILES) | percent inhibition (%) |
| --- | --- |
| CN(C)CCNc1ccc(C#N)c(CN2CCN(c3ccc(C(F)(F)F)cc3)CC2)c1 [VI-28, 4-(N′,N′-dimethyl-1,2-ethylenediamin-1-yl)-2-(4-p-trifluoromethylphenyl-piperazin-1-yl)methylbenzonitrile] | 79 |
| COc1ccc(N2CCN(Cc3cc(N(C)CCN(C)C)ccc3C#N)CC2)cc1OC [VI-45, 4-(N,N′,N′-trimethyl-1,2-ethylenediamin-1-yl)-2-(3,4-dimethoxyphenylpiperazin-1-yl)methylbenzonitrile] | 92 |
| Cc1ccc(NCc2cc(NCCCN(C)C)ccc2C#N)cc1 [Compound 26, 4-(N,N-dimethyl-1,3-propanediamin-1-yl)-2-(p-methylphenylamino)methylbenzonitrile] | 79 |
| Cc1ccc(N2CCN(Cc3cc(NCCCN(C)C)ccc3C#N)CC2)cc1 [VI-26, 4-(N′,N′-dimethyl-1,3-propanediamin-1-yl)-2-(4-p-methylphenylpiperazin-1-yl)methylbenzonitrile] | 58 |
| CN(C)CCN(C)c1ccc(C#N)c(CN2CCN(c3ccc(Cl)cc3)CC2)c1 [VI-35, 4-(N,N′,N′-trimethyl-1,2-ethylenediamin-1-yl)-2-(4-p-chlorophenylpiperazin-1-yl)methylbenzonitrile] | 99 |
| COc1ccc(NCc2cc(NCCN(C)C)ccc2C#N)cc1 [Compound 30, 4-(N,N-dimethyl-1,3-ethylenediamin-1-yl)-2-(p-methoxyphenylamino)methylbenzonitrile] | 49 |
| COc1ccc(N2CCN(Cc3cc(N4C(C)CNCC4C)ccc3C#N)CC2)cc1 (stereo not shown) [VI-25] | 67 |

— patent publication US10252987B2, “Type of antiviral compound” (Institute of Medicinal Biotechnology, Chinese Academy of …, priority 2015, dated 2019)
